Data taken from ChEMBL document CHEMBL1127884, “Inhibition of stromelysin-1 (MMP-3) by peptidyl phosphinic acids” (Bioorg Med Chem Lett, 1994).

What was measured:
Interstitial collagenase = target: T1, Interstitial collagenase (Homo sapiens, UniProt P03956); experiment: In vitro inhibition of human fibroblast collagenase.
T1 sequence (P03956 whole entry): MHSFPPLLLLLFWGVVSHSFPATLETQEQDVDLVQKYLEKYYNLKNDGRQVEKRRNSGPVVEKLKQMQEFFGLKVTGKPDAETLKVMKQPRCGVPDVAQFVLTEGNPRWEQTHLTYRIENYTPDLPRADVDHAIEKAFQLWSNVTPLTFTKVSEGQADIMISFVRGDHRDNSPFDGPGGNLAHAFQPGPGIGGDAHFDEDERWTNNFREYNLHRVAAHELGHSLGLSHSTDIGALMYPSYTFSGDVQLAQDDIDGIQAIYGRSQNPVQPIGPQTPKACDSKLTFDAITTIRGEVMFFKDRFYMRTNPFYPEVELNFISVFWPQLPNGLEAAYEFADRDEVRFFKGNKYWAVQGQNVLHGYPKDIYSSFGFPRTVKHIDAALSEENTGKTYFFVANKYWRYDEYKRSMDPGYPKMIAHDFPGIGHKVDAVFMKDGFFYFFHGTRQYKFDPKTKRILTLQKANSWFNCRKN

Stromelysin-1 [1] = target: T2, Stromelysin-1 (Homo sapiens, UniProt P08254); experiment: In vitro inhibition of human recombinant stromelysin-1.
Target sequence in this assay (P08254 whole entry): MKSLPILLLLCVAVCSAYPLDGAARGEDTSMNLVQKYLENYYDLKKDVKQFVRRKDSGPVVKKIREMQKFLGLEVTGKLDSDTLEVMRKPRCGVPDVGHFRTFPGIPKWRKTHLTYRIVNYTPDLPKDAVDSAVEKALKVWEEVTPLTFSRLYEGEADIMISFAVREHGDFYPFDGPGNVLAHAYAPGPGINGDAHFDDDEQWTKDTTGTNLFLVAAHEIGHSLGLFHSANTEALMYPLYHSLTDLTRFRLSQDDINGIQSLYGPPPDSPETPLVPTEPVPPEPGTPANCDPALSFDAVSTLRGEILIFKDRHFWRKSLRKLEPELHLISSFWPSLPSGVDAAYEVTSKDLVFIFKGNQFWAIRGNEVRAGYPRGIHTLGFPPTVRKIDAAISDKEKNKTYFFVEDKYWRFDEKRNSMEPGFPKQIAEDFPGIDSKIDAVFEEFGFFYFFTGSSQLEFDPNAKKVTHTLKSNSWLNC

[2] = target: T3, Interstitial collagenase (Homo sapiens) (UniProt P03956); experiment: In vitro inhibition of human fibroblast collagenase at a 10 uM.
T3 sequence (whole entry): T1 sequence (P03956 whole entry)

Stromelysin-1 [3] = target: T2, Stromelysin-1; experiment: In vitro inhibition of human recombinant stromelysin-1 at a concentration of 5 uM.
Target sequence in this assay (P08254 100-477 limits assumed): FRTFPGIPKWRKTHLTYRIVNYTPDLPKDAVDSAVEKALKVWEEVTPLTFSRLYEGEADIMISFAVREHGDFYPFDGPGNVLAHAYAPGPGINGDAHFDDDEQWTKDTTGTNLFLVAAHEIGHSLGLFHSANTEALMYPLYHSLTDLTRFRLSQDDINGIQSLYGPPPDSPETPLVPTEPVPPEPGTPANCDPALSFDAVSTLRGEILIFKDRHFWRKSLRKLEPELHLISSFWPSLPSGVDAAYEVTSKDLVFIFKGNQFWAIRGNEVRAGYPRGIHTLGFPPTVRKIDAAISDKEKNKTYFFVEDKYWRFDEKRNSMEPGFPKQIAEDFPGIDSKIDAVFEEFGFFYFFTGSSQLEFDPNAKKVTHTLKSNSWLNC

Question: Which results are given for `CC(C)C[C@H](NC(=O)C(CCc1ccccc1)CP(=O)(O)[C@H](C)NC(=O)[C@H](C)NC(=O)C1CCCN1C(=O)c1ccccc1)C(=O)Nc1ccccc1` (stereo partly specified)?
Answer: Ki (Interstitial collagenase): 5100 nM; Ki (Stromelysin-1 [1]): 20 nM

Question: Which results are given for `CC(C)CC(NC(=O)C(CCc1ccccc1)CP(=O)(O)CNC(=O)CN1C(=O)c2ccccc2C1=O)C(=O)Nc1ccccc1` (stereo unspecified)?
Answer: inhibition [2]: 14%; Ki (Stromelysin-1 [1]): 410 nM

Question: For `CC(=O)N[C@@H](C)C(=O)N[C@@H](C)P(=O)(O)CC(CCc1ccccc1)C(=O)N[C@@H](CC(C)C)C(=O)Nc1ccccc1` (stereo partly specified), which inhibition [2] is on record?
Answer: Its inhibition is 0%.

Question: And the Ki (Stromelysin-1 [1])?
Answer: The Ki was 340 nM.

Question: What does the source list for `CC(C)C[C@H](NC(=O)C(CCc1ccccc1)CP(=O)(O)CNC(=O)[C@H](C)NC(=O)C1CCCN1C(=O)c1ccccc1)C(=O)Nc1ccccc1` (stereo partly specified)?
Answer: inhibition [2]: 39%; Ki (Stromelysin-1 [1]): 24 nM

Question: With `CC(C)C[C@H](NC(=O)C(CCc1ccccc1)CP(=O)(O)[C@H](C)NC(=O)CN1C(=O)c2ccccc2C1=O)C(=O)Nc1ccccc1` (stereo partly specified) as the compound, how does the inhibition [2] read?
Answer: Its inhibition is 0%.

Question: And the Ki (Stromelysin-1 [1])?
Answer: The Ki was 2400 nM.

Question: With `CC(C)C[C@H](NC(=O)C(CCc1ccccc1)CP(=O)(O)CNC(=O)[C@H](CCC(=O)O)NC(=O)OCc1ccccc1)C(=O)Nc1ccccc1` (stereo partly specified) as the compound, how does the inhibition [2] read?
Answer: The inhibition was 12%.

Question: And the Ki (Stromelysin-1 [1])?
Answer: The Ki was 370 nM.

Question: Which Ki (Interstitial collagenase) does the source give for `CC(=O)N1CCCC1C(=O)N[C@@H](C)C(=O)N[C@@H](C)P(=O)(O)CC(CCc1ccccc1)C(=O)N[C@@H](CC(C)C)C(=O)Nc1ccccc1` (stereo partly specified) here?
Answer: The Ki was 2900 nM.

Question: And the Ki (Stromelysin-1 [1])?
Answer: Its Ki is 6.1 nM.

Question: With `CC(C)C[C@H](NC(=O)C(CCc1ccccc1)CP(=O)(O)CNC(=O)[C@H](Cc1c[nH]cn1)NC(=O)OCc1ccccc1)C(=O)Nc1ccccc1` (stereo partly specified) as the compound, how does the inhibition [2] read?
Answer: The inhibition was 9%.

Question: What about the Ki (Stromelysin-1 [1]) of the same compound?
Answer: Its Ki is 210 nM.

Question: What does the source list for `CC(C)C[C@H](NC(=O)C(CCc1ccccc1)CP(=O)(O)CNC(=O)[C@H](Cc1ccccc1)NC(=O)OCc1ccccc1)C(=O)Nc1ccccc1` (stereo partly specified)?
Answer: inhibition [2]: 4%; Ki (Stromelysin-1 [1]): 710 nM

Question: For `CC(=O)N1CCCC1C(=O)N[C@@H](C)C(=O)NCP(=O)(O)CC(CCc1ccccc1)C(=O)N[C@@H](CC(C)C)C(=O)Nc1ccccc1` (stereo partly specified), which inhibition [2] is on record?
Answer: Its inhibition is 60%.

Question: And the Ki (Stromelysin-1 [1])?
Answer: Its Ki is 15 nM.

Question: With `CC(C)C[C@H](NC(=O)C(CCc1ccccc1)CP(=O)(O)[C@H](C)NC(=O)OCc1ccccc1)C(=O)Nc1ccccc1` (stereo partly specified) as the compound, how does the Ki (Interstitial collagenase) read?
Answer: Its Ki is 7500 nM.

Question: And the Ki (Stromelysin-1 [1])?
Answer: Its Ki is 330 nM.

Question: For `CC(=O)N1CCCC1C(=O)N[C@@H](C)P(=O)(O)CC(CCc1ccccc1)C(=O)N[C@@H](CC(C)C)C(=O)Nc1ccccc1` (stereo partly specified), which inhibition (Stromelysin-1 [3]) is on record?
Answer: The inhibition was 57%.

Question: What about the inhibition [2] of the same compound?
Answer: Its inhibition is 0%.

Question: Which inhibition [2] does the source give for `CC(C)C[C@H](NC(=O)C(CCc1ccccc1)CP(=O)(O)[C@H](C)NCc1ccccc1)C(=O)Nc1ccccc1` (stereo partly specified) here?
Answer: The inhibition was 7%.

Question: And the Ki (Stromelysin-1 [1])?
Answer: The Ki was 1900 nM.

Question: `CC(C)C[C@H](NC(=O)C(CCc1ccccc1)CP(=O)(O)CNC(=O)CNC(=O)OCc1ccccc1)C(=O)Nc1ccccc1` (stereo partly specified) was tested. Which inhibition [2] did it give?
Answer: Its inhibition is 4%.

Question: And the Ki (Stromelysin-1 [1])?
Answer: The Ki was 1400 nM.

Question: Which results are given for `CC(C)C[C@H](NC(=O)C(CCc1ccccc1)CP(=O)(O)CNC(=O)OCc1ccccc1)C(=O)Nc1ccccc1` (stereo partly specified)?
Answer: Ki (Interstitial collagenase): 15900 nM; Ki (Stromelysin-1 [1]): 280 nM

Question: How did the inhibition [2] turn out when `CC(C)C[C@H](NC(=O)C(CCc1ccccc1)CP(=O)(O)CNC(=O)[C@H](C)NC(=O)OCc1ccccc1)C(=O)Nc1ccccc1` (stereo partly specified) was run?
Answer: Its inhibition is 0%.

Question: What about the Ki (Stromelysin-1 [1]) of the same compound?
Answer: Its Ki is 280 nM.

Question: What does the source list for `CC(C)C[C@H](NC(=O)C(CCc1ccccc1)CP(=O)(O)CNC(=O)Cc1ccccc1)C(=O)Nc1ccccc1` (stereo partly specified)?
Answer: inhibition [2]: 0%; Ki (Stromelysin-1 [1]): 940 nM

Question: `CC(=O)N[C@@H](C)C(=O)N[C@@H](C)C(=O)N[C@@H](C)P(=O)(O)CC(CCc1ccccc1)C(=O)N[C@@H](CC(C)C)C(=O)Nc1ccccc1` (stereo partly specified) was tested. Which inhibition [2] did it give?
Answer: The inhibition was 32%.

Question: What about the Ki (Stromelysin-1 [1]) of the same compound?
Answer: The Ki was 42 nM.

Question: How did the inhibition [2] turn out when `CCCC[C@H](NC(=O)OCc1ccccc1)C(=O)NCP(=O)(O)CC(CCc1ccccc1)C(=O)N[C@@H](CC(C)C)C(=O)Nc1ccccc1` (stereo partly specified) was run?
Answer: The inhibition was 0%.

Question: What about the Ki (Stromelysin-1 [1]) of the same compound?
Answer: The Ki was 1300 nM.

Question: What does the source list for `CC(C)C[C@H](NC(=O)C(CCc1ccccc1)CP(=O)(O)CNCc1ccccc1)C(=O)Nc1ccccc1` (stereo partly specified)?
Answer: inhibition [2]: 0%; Ki (Stromelysin-1 [1]): 1900 nM

Question: `CC(C)C[C@H](NC(=O)C(CCc1ccccc1)CP(=O)(O)CNC(=O)[C@H](CCCCN)NC(=O)OCc1ccccc1)C(=O)Nc1ccccc1` (stereo partly specified) was tested. Which inhibition [2] did it give?
Answer: Its inhibition is 18%.

Question: What about the Ki (Stromelysin-1 [1]) of the same compound?
Answer: Its Ki is 4600 nM.

Question: What does the source list for `CC(C)C[C@H](NC(=O)C(CCc1ccccc1)CP(=O)(O)CNC(=O)[C@H](CC(N)=O)NC(=O)OCc1ccccc1)C(=O)Nc1ccccc1` (stereo partly specified)?
Answer: inhibition [2]: 14%; Ki (Stromelysin-1 [1]): 600 nM

Question: For `CC(C)C[C@H](NC(=O)C(CCc1ccccc1)CP(=O)(O)CNC(=O)[C@H](Cc1ccc(O)cc1)NC(=O)OCc1ccccc1)C(=O)Nc1ccccc1` (stereo partly specified), which inhibition [2] is on record?
Answer: The inhibition was 0%.

Question: What about the Ki (Stromelysin-1 [1]) of the same compound?
Answer: The Ki was 560 nM.
